{"source": "patent US11964990B2", "about": "“1,3,4,7-tetrahydro-2H-pyrrolo[3′,2′:5,6]pyrido[2,3-b][1,4]oxazepine bcl-2 inhibitors” (AbbVie Inc., priority 2022, dated 2024)", "key": {"Bcl-xL protein": {"target": "Bcl-xL protein (Homo sapiens (Human), UniProt Q07817)", "sequence (Q07817 other isoform, or with tags, fused parts or gaps)": "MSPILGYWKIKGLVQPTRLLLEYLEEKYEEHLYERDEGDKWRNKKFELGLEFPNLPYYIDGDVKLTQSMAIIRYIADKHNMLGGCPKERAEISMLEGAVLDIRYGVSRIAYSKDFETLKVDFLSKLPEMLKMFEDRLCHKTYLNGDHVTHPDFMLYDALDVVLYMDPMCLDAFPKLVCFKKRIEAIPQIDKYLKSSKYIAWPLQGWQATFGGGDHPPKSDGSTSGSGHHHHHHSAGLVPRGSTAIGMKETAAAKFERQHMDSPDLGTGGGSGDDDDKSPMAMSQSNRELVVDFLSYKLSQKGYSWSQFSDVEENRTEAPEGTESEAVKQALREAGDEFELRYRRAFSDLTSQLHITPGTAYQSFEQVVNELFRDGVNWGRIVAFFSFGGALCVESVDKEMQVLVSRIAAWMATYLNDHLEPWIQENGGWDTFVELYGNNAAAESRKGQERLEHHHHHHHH", "experiment": "TR-FRET binding assay, Bcl-xL (F-Bak peptide probe)", "settings": "Bak BH3 peptide probe, Wang's equation", "procedure": "(§1) Determination of the utility of compounds having Formula (I) or Formula (II) as binders to and inhibitors of anti-apoptotic Bcl-2 proteins was performed using the Time Resolved-Fluorescence Resonance Energy Transfer (TR-FRET) Assay. Tb-anti-GST antibody was purchased from Invitrogen (Catalog No. PV4216).\nA human Bcl-xL encoding sequence was cloned into a pET41A vector. The protein was expressed with E. coli. BL21(DE3)-T1R strain in OETB autoinduction medium at 30° C. for 25 hours. The cell pellets were resuspended in lysis buffer (50 mM Tris, 140 mM NaCl, 1 mM DTT, 10% Glycerol, 0.1% Triton X-100, pH 7.5) and lysed with Microfluidizer. The Bcl-xL protein in clarified cell-lysate was purified with GST affinity chromatography. The eluate was dialyzed in the storage buffer (1×PBS, 10% Glycerol, 2 mM DTT, 1 mM Sodium Azide, pH 7.4) and stored at −80° C.\n(§2) […] of a protein (Bcl-2 or Bcl-xL)/probe/antibody mixture pre-equilibrated for one hour in assay buffer was added to each well at final concentrations listed in Table 6 below.\n(§3) The samples were then mixed on a shaker for 1 minute and equilibrated for an additional 3 hours at room temperature. For each assay plate, a probe/antibody and protein/antibody/probe mixture were included as a negative and a positive control, respectively. Fluorescence was measured on the Envision (Perkin Elmer) using a 340/35 nm excitation filter and 520/525 (F-Bak) and 495/510 nm (Tb-labeled anti-GST antibody) emission filters. Inhibition constants (Ki) were determined using Wang's equation (Wang FEBS Lett. 1995, 360, 111-114). The TR-FRET assay can be performed in the presence of varying concentrations of human serum (HS) to determine apparent half maximal inhibitory concentration (IC50) after HS protein binding.\n(§4) Inhibition constants were determined using Wang's equation (Wang FEBS Lett. 1995, 360:111-4)."}, "RS4;11 cells": {"tested_on": "RS4;11 cells", "experiment": "Cell viability assay (CellTiter-Glo) in RS4;11 cell line", "format": "cell-based", "settings": "24 hours, 10% Human Serum, 50% decrease in cell viability", "in_short": "(§5)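 RS4;11 or Molt-4 cells (3000 per well) in RPMI 1640 with 10% human serum treated with compound for 24 h, 5% CO2. Viability measured by CellTiter-Glo as percent of control; EC50 from sigmoidal dose-response curves.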"}, "Molt-4 cells": {"tested_on": "Molt-4 cells", "experiment": "Cell viability counter screen assay (CellTiter-Glo) in Molt-4 cells", "format": "cell-based", "settings": "24 hours, 10% Human Serum, 50% decrease in cell viability", "in_short": "as §5"}, "Bcl-2 protein": {"target": "Bcl-2 protein (Homo sapiens (Human), UniProt P10415)", "sequence (P10415 other isoform, or with tags, fused parts or gaps)": "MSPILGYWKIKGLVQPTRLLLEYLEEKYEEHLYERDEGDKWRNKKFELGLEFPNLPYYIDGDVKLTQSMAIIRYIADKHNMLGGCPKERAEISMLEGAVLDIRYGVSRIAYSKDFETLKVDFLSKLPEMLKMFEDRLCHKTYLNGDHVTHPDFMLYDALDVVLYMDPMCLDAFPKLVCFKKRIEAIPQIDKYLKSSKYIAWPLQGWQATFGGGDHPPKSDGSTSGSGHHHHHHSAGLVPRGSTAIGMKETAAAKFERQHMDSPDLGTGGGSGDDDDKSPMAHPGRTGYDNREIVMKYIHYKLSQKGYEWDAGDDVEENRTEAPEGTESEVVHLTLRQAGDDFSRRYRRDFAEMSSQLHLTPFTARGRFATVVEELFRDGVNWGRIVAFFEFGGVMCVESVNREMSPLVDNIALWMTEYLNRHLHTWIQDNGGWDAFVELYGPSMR", "experiment": "TR-FRET binding assay, Bcl-2 (F-Bak peptide probe)", "settings": "Bak BH3 peptide probe, Wang's equation", "procedure": "as §1\nA Bcl-2 human encoding sequence was cloned into a pET41A vector (Novagen). The protein was expressed with E. coli. BL21(DE3)-T1R strain in OETB autoinduction medium at 30° C. for 25 hours. The cell pellets were resuspended in lysis buffer (50 mM Tris, 140 mM NaCl, 1 mM DTT, 10% Glycerol, 2 mM MgCl2, pH 7.3) and lysed with Microfluidizer. The Bcl-2 protein in clarified cell-lysate was purified with affinity chromatography (GST and Ni-NTA). The eluate was loaded onto a Superdex 75 column and further purified with a Q Sepharose column. The protein was purified on a phenyl hydrophobic interaction column and dialyzed in the storage buffer (50 mM Tris, 50 mM NaCl, 2 mM DTT, pH 7.5) and stored at −80° C.\nas §2, §3, §4"}}}
{"smiles": "CC1(C)CC(c2ccc(Cl)cc2)=C2CN3CCN(c4ccc(C(=O)NS(=O)(=O)c5ccc(OC[C@H]6CC[C@H](N7CCOCC7)CC6)c(Cl)c5)c(N5CCCOc6nc7[nH]ccc7cc65)c4)C[C@H]3COCCCO[C@@H]2C1", "note": "[Example 38, N-((3-chloro-4-(((1r,4r)-4-morpholinocyclohexyl)methoxy)phenyl)sulfonyl)-4-((4aS,10aR)-14-(4-chlorophenyl)-12,12-dimethyl-1,2,4a,5,8,9,10a,11,13,15-decahydro-7H,12H-benzo[f]pyrazino[2,1-c][1,8]dioxa[4]azacycloundecin-3(4H)-yl)-2-(3,4-dihydro-2H-pyrrolo[3′,2′:5,6]pyrido[2,3-b][1,4]oxazepin-1(7H)-yl)benzamide]", "values": [{"measurement": "Ki", "setting": "Bcl-xL protein", "result": 5.62, "unit": "nM"}, {"measurement": "EC50", "setting": "RS4;11 cells", "result": 26, "unit": "nM"}, {"measurement": "EC50", "setting": "Molt-4 cells", "result": 2340, "unit": "nM"}, {"measurement": "Ki", "setting": "Bcl-2 protein", "result": 0.108, "unit": "nM"}]}
{"smiles": "CC1(C)CC(c2ccc(Cl)cc2)=C2CN3CCN(c4ccc(C(=O)NS(=O)(=O)c5cnc(OC[C@H]6CC[C@](C)(O)CC6)c(Cl)c5)c(N5CCCOc6nc7[nH]ccc7cc65)c4)C[C@H]3COCCCO[C@@H]2C1", "note": "[Example 42, N-((5-chloro-6-(((1r,4r)-4-hydroxy-4-methylcyclohexyl)methoxy)pyridin-3-yl)sulfonyl)-4-((4aS,10aR)-14-(4-chlorophenyl)-12,12-dimethyl-1,2,4a,5,8,9,10a,11,13,15-decahydro-7H,12H-benzo[f]pyrazino[2,1-c][1,8]dioxa[4]azacycloundecin-3(4H)-yl)-2-(3,4-dihydro-2H-pyrrolo[3′,2′:5,6]pyrido[2,3-h][1,4]oxazepin-1(7H)-yl)benzamide]", "values": [{"measurement": "Ki", "setting": "Bcl-xL protein", "result": 25.1, "unit": "nM"}, {"measurement": "EC50", "setting": "RS4;11 cells", "result": 11.3, "unit": "nM"}, {"measurement": "EC50", "setting": "Molt-4 cells", "result": "> 10000", "unit": "nM"}, {"measurement": "Ki", "setting": "Bcl-2 protein", "result": 0.159, "unit": "nM"}]}
{"smiles": "CC1(C)CC(c2ccc(Cl)cc2)=C2CN3CCN(c4ccc(C(=O)NS(=O)(=O)c5ccc(OC[C@H]6CC[C@](C)(O)CC6)c(Cl)c5)c(N5CCCOc6nc7[nH]ccc7cc65)c4)C[C@H]3COCCCO[C@@H]2C1", "note": "[Example 43, N-((3-chloro-4-(((1r,4r)-4-hydroxy-4-methylcyclohexyl)methoxy)phenyl)sulfonyl)-4-((4aS,10aR)-14-(4-chlorophenyl)-12,12-dimethyl-1,2,4a,5,8,9,10a,11,13,15-decahydro-7H,12H-benzo[f]pyrazino[2,1-c][1,8]dioxa[4]azacycloundecin-3(4H)-yl)-2-(3,4-dihydro-2H-pyrrolo[3′,2′:5,6]pyrido[2,3-b][1,4]oxazepin-1(7H)-yl)benzamide]", "values": [{"measurement": "Ki", "setting": "Bcl-xL protein", "result": 29.7, "unit": "nM"}, {"measurement": "EC50", "setting": "RS4;11 cells", "result": 17.7, "unit": "nM"}, {"measurement": "EC50", "setting": "Molt-4 cells", "result": "> 10000", "unit": "nM"}, {"measurement": "Ki", "setting": "Bcl-2 protein", "result": 0.0853, "unit": "nM"}]}
{"smiles": "CC1(C)CC(c2ccc(Cl)cc2)=C2CN3CCN(c4ccc(C(=O)NS(=O)(=O)c5ccc(OC[C@H]6CC[C@](C)(O)CC6)c([N+](=O)[O-])c5)c(N5CCCOc6nc7[nH]ccc7cc65)c4)C[C@H]3COCCCO[C@@H]2C1", "note": "[Example 44, 4-((4aS,10aR)-14-(4-chlorophenyl)-12,12-dimethyl-1,2,4a,5,8,9,10a,11,13,15-decahydro-7H,12H-benzo[f]pyrazino[2,1-c][1,8]dioxa[4]azacycloundecin-3(4H)-yl)-2-(3,4-dihydro-2H-pyrrolo[3′,2′:5,6]pyrido[2,3-b][1,4]oxazepin-1(7H)-yl)-N-((4-(((1r,4r)-4-hydroxy-4-methylcyclohexyl)methoxy)-3-nitrophenyl)sulfonyl)benzamide]", "values": [{"measurement": "Ki", "setting": "Bcl-xL protein", "result": 7.98, "unit": "nM"}, {"measurement": "EC50", "setting": "RS4;11 cells", "result": 4.39, "unit": "nM"}, {"measurement": "EC50", "setting": "Molt-4 cells", "result": 2270, "unit": "nM"}, {"measurement": "Ki", "setting": "Bcl-2 protein", "result": 0.0898, "unit": "nM"}]}
{"smiles": "CC1(C)CC(c2ccc(Cl)cc2)=C2CN3CCN(c4ccc(C(=O)NS(=O)(=O)c5ccc(NCC6CCCCO6)c([N+](=O)[O-])c5)c(N5CCCOc6nc7[nH]ccc7cc65)c4)C[C@H]3COCCCO[C@@H]2C1", "note": "(stereo partly drawn) [Example 45, 4-((4aS,10aR)-14-(4-chlorophenyl)-12,12-dimethyl-1,2,4a,5,8,9,10a,11,13,15-decahydro-7H,12H-benzo[f]pyrazino[2,1-c][1,8]dioxa[4]azacycloundecin-3(4H)-yl)-2-(3,4-dihydro-2H-pyrrolo[3′,2′:5,6]pyrido[2,3-b][1,4]oxazepin-1(7H)-yl)-N-((3-nitro-4-(((tetrahydro-2H-pyran-2-yl)methyl)amino)phenyl)sulfonyl)benzamide]", "values": [{"measurement": "Ki", "setting": "Bcl-xL protein", "result": 27.8, "unit": "nM"}, {"measurement": "EC50", "setting": "RS4;11 cells", "result": 10.7, "unit": "nM"}, {"measurement": "EC50", "setting": "Molt-4 cells", "result": "> 10000", "unit": "nM"}, {"measurement": "Ki", "setting": "Bcl-2 protein", "result": 0.238, "unit": "nM"}]}
{"smiles": "COC[C@]1(F)C[C@H](CNc2ccc(S(=O)(=O)NC(=O)c3ccc(N4CCN5CC6=C(c7ccc(Cl)cc7)CC(C)(C)C[C@H]6OCCCOC[C@@H]5C4)cc3N3CCCOc4nc5[nH]ccc5cc43)cc2[N+](=O)[O-])C1", "note": "[Example 47, 4-((4aS,10aR)-14-(4-chlorophenyl)-12,12-dimethyl-1,2,4a,5,8,9,10a,11,13,15-decahydro-7H,12H-benzo[f]pyrazino[2,1-c][1,8]dioxa[4]azacycloundecin-3(4H)-yl)-2-(3,4-dihydro-2H-pyrrolo[3′,2′:5,6]pyrido[2,3-b][1,4]oxazepin-1(7H)-yl)-N-((4-((((1r,3r)-3-fluoro-3-(methoxymethyl)cyclobutyl)methyl)amino)-3-nitrophenyl)sulfonyl)benzamide]", "values": [{"measurement": "Ki", "setting": "Bcl-xL protein", "result": 25.8, "unit": "nM"}, {"measurement": "EC50", "setting": "RS4;11 cells", "result": 10.9, "unit": "nM"}, {"measurement": "EC50", "setting": "Molt-4 cells", "result": "> 10000", "unit": "nM"}, {"measurement": "Ki", "setting": "Bcl-2 protein", "result": 0.28, "unit": "nM"}]}
{"smiles": "CO[C@]1(CF)C[C@@H](CNc2ccc(S(=O)(=O)NC(=O)c3ccc(N4CCN5CC6=C(c7ccc(Cl)cc7)CC(C)(C)C[C@H]6OCCCOC[C@@H]5C4)cc3N3CCCOc4nc5[nH]ccc5cc43)cc2[N+](=O)[O-])C1", "note": "[Example 48, 4-((4aS,10aR)-14-(4-chlorophenyl)-12,12-dimethyl-1,2,4a,5,8,9,10a,11,13,15-decahydro-7H,12H-benzo[f]pyrazino[2,1-c][1,8]dioxa[4]azacycloundecin-3(4H)-yl)-2-(3,4-dihydro-2H-pyrrolo[3′,2′:5,6]pyrido[2,3-b][1,4]oxazepin-1(7H)-yl)-N-((4-((((1r,3r)-3-(fluoromethyl)-3-methoxycyclobutyl)methyl)amino)-3-nitrophenyl)sulfonyl)benzamide]", "values": [{"measurement": "Ki", "setting": "Bcl-xL protein", "result": 28.6, "unit": "nM"}, {"measurement": "EC50", "setting": "RS4;11 cells", "result": 18.1, "unit": "nM"}, {"measurement": "EC50", "setting": "Molt-4 cells", "result": 5840, "unit": "nM"}, {"measurement": "Ki", "setting": "Bcl-2 protein", "result": 0.206, "unit": "nM"}]}
{"smiles": "CC1(C)CC(c2ccc(Cl)cc2)=C2CN3CCN(c4ccc(C(=O)NS(=O)(=O)c5cnc(OC[C@H]6CC[C@@](C)(O)CC6)c(Cl)c5)c(N5CCCOc6nc7[nH]ccc7cc65)c4)C[C@H]3COCCCO[C@@H]2C1", "note": "[Example 50, N-((5-chloro-6-(((1s,4s)-4-hydroxy-4-methylcyclohexyl)methoxy)pyridin-3-yl)sulfonyl)-4-((4aS,10aR)-14-(4-chlorophenyl)-12,12-dimethyl-1,2,4a,5,8,9,10a,11,13,15-decahydro-7H,12H-benzo[f]pyrazino[2,1-c][1,8]dioxa[4]azacycloundecin-3(4H)-yl)-2-(3,4-dihydro-2H-pyrrolo[3′,2′:5,6]pyrido[2,3-b][1,4]oxazepin-1(7H)-yl)benzamide]", "values": [{"measurement": "Ki", "setting": "Bcl-xL protein", "result": 39.7, "unit": "nM"}, {"measurement": "EC50", "setting": "RS4;11 cells", "result": 41.9, "unit": "nM"}, {"measurement": "EC50", "setting": "Molt-4 cells", "result": "> 10000", "unit": "nM"}, {"measurement": "Ki", "setting": "Bcl-2 protein", "result": 0.237, "unit": "nM"}]}
{"smiles": "CO[C@@H]1CC[C@@H](COc2ccc(S(=O)(=O)NC(=O)c3ccc(N4CCN5CC6=C(c7ccc(Cl)cc7)CC(C)(C)C[C@H]6OCCCOC[C@@H]5C4)cc3N3CCCOc4nc5[nH]ccc5cc43)cc2[N+](=O)[O-])OC1", "note": "[Example 51]", "values": [{"measurement": "Ki", "setting": "Bcl-xL protein", "result": 18.9, "unit": "nM"}, {"measurement": "EC50", "setting": "RS4;11 cells", "result": 9.6, "unit": "nM"}, {"measurement": "EC50", "setting": "Molt-4 cells", "result": "> 10000", "unit": "nM"}, {"measurement": "Ki", "setting": "Bcl-2 protein", "result": 0.1, "unit": "nM"}]}
